Results: patent US10167293B2, “[8-(phenylsulfonyl)-3,8-diazabicyclo[3.2.1]oct-3-yl](1H-1,2,3-triazol-4-yl)methanones” (BAYER PHARMA AKTIENGESELLSCHAFT, priority 2016, dated 2019)

What was measured:
[1] = biological target: recombinant human AKR1C3 (Homo sapiens (Human), UniProt P42330); experiment: AKR1C3-inhibitory activity assay (Coumberone to Coumberol fluorescence); assay type: biochemical; conditions: recombinant human AKR1C3, 15 min pre-incubation, 10 μM NADPH, 0.3 μM Coumberone
Experimental: The AKR1C3-inhibitory activity of the substances of the present invention was measured in the AKR1C3 assay described in the paragraphs below.
Essentially, the enzyme activity is measured by quantification of the generation of Coumberol from Coumberone (Halim et al. J. AM. CHEM. SOC. 2008, 130:14123-14128 and Yee et al. Proc. Natl. Acad. Sci. USA 2006, 103:13304-13309). In this test, the increase of the highly fluorescent Coumberol by NADPH—(nicotinamide adenine dinucleotide phosphate)-dependent reduction of the non-fluorescent Coumberone by AKR1C3 was determined.
The enzyme used was recombinant human AKR1C3 (Aldo-keto reductase family 1 member C3; GenBank Accession No. NM_003739). This was expressed in E. coli as GST (glutathione S transferase) fusion protein and purified by glutathione Sepharose affinity chromatography. The GST was removed by digestion with thrombin and subsequent size exclusion chromatography (Dufort, I., Rheault, P., Huang, X F., Soucy, P., and Luu-The, V., Endocrinology 140, 568-574 (1999)).
For the assay, 50 nl of a 100-fold concentrated solution of the test substance in DMSO were pipetted into a black low-volume 384-well microtiter plate (Greiner Bio-One, Frickenhausen, Germany), 2.5 μl of a solution of AKR1C3 in assay buffer [50 mM potassium phosphate buffer pH 7, 1 mM DTT, 0.0022% (w/v) Pluronic F-127, 0.01% BSA (w/v) and protease inhibitor cocktail (Complete, EDTA-free Protease Inhibitor Cocktail from Roche)] were added and the mixture was incubated for 15 min to allow pre-binding of the substances to the enzyme prior to the enzyme reaction. The enzyme reaction was then started by addition of 2.5 μl of a solution of NADPH (20 μM→final concentration in 5 μl of assay volume is 10 μM) and Coumberone (0.6 μM→final concentration in 5 μl of assay volume is 0.3 μM) in assay buffer, and the resulting mixture was incubated at 22° C. for the reaction time of typically 90 min. The concentration of the AKR1C3 and the reaction time was adapted to the respective activity of the enzyme preparation and adjusted such that the assay was carried out in the linear range. Typical AKR1C3 concentrations were in the region of 1 nM. The reaction was stopped by addition of 2.5 μl of a stop solution consisting of 3 μM EM-1404 as inhibitor (U.S. Pat. No. 6,541,463) in 50 mM HEPES pH7.5 (3 μM EM-1404→final concentration in 7.5 μl of assay volume is 1 μM). The fluorescence of the Coumberole was then measured at 520 nm (excitation at 380 nm) using a suitable measuring instrument (Pherastar from BMG Labtechnologies). The intensity of the fluorescence was used as a measure of the amount of Coumberole formed and thus of the enzyme activity of AKR1C3. The data were normalized (enzyme reaction without inhibitor=0% inhibition; all other assay components, but no enzyme=100% inhibition).

[2] = system: human primary adipocytes; experiment: Inhibition of testosterone formation from androstenedione in human primary adipocytes; assay type: cell-based; conditions: 1 μM androstenedione, 1 μM or 10 μM compound, 48 h, donors with BMI 26 and 30
Experimental: Cat# SA-1012-3 12 well Platte). Adipocytes were incubated in Adipocyte Basal Medium (Fa. ZenBio, Cat# BM-1)+1% FCS+2.5 μg/ml Amphotericin B (Fa. […] Androstenedione served as a substrate for the formation into testosterone. After the incubation adipocytes were collected and testosterone and androstenedione concentrations were determined by LC/MS at the “Bioanalytical Service and research provider Pharm-Analyt”. Inhibition of the conversion of androstenedione to testosterone by compound 76 is determined as Testosterone/Androstenedione ratio [%]. […] FIG. 1: […] The testosterone/androstenedione ratio [%] is shown.

[3] = system: endometriotic lesions; experiment: Callithrix jacchus endometriosis model; assay type: in vivo; conditions: 5 mg/kg orally once per day, 6 weeks
Experimental: The in vivo efficacy of compound 76 was tested in a non-human primate endometriosis model in marmoset monkeys.
Marmoset monkeys (Callithrix jacchus) are non-menstruating species in which endometriosis was induced by injection of endometrial tissue into the peritoneal cavity (Einspanier, Lieder et al, 2006). 6-12 year old female common marmosets with established endometriosis were employed (body weight between 358 g and 520 g) and distributed into 2 groups, with a size of n=5 animals per group. Prior to the actual start of the treatment, the animals were subjected to a laparotomy and examined for the presence of endometriotic lesions on the bladder, the uterus and the ovaries to measure each lesion's area. The randomization of animals into the two treatment groups was performed with respect to the initial lesion status at the first laparotomy. The endometriosis severity based on total lesion area per animal was distributed similarly across the groups.
For both the treatment group (5 mg/kg of compound 76) and vehicle treated group, the sum of total lesion area/size [cm^2] per animal, with respect to lesion area and lesion number, was determined and defined as pre-treatment status. 6 weeks later the treatment was started. The test compounds were administered orally once per day in capsules (PC Caps® capsules, Capsugel). To adapt for the intended dose, a trituration of the active compound with lactose was prepared and the exact dose was filled into the individual capsules. Each capsule was separately coated with salvia resistant coating (Eudragit EPO; Evonik). After the end of a 6 weeks treatment period, a second laparotomy was carried out and the number and size of the lesions on uterus, ovaries and bladder was determined with respect to total lesion size/area and defined as post-treatment status.

Sequence of recombinant human AKR1C3 (P42330 whole entry): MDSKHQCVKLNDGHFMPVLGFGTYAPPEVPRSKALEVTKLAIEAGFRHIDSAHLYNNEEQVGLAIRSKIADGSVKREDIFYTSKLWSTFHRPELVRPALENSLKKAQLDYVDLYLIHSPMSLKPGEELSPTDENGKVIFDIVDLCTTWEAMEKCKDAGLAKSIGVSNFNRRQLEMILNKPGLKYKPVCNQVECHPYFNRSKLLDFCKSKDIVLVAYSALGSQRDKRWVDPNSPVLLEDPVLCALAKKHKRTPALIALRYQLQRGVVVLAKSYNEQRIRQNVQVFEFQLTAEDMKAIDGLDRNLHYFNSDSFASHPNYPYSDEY

SMILES | IC50 [1] | further results
O=C(c1cnn[n-]1)N1CC2CCC(C1)N2S(=O)(=O)c1cccc(F)c1.[Na+] [Example 76, sodium 5-({8-[(3-fluorophenyl)sulfonyl]-3,8-diazabicyclo[3.2.1]oct-3-yl}carbonyl)-1,2,3-triazol-1-ide] | 1.1 nM | formation of testosterone from androstenedione (Testosterone/Androstenedione ratio) [2]: inhibited; mean reduction of the total lesion size compared to baseline ([3]; n=5): 68.9%; ratio of total lesion size/area post- versus pre-treatment ([3]; all treated animals): below 1; total lesion size post-treatment versus pre-treatment ([3]; marmosets with established endometriosis): strongly reduced
Cc1ccc(Cl)cc1S(=O)(=O)N1C2CCC1CN(C(=O)c1cnn[nH]1)C2 [Example 63, {8-[(5-chloro-2-methylphenyl)sulfonyl]-3,8-diazabicyclo[3.2.1]oct-3-yl}(1H-1,2,3-triazol-5-yl)methanone] | 1.7 nM | –
O=C(c1c[nH]nn1)N1CC2CCC(C1)N2S(=O)(=O)c1ccc(Cl)s1 [Example 11, {8-[(5-chlorothiophen-2-yl)sulfonyl]-3,8-diazabicyclo[3.2.1]oct-3-yl}(1H-1,2,3-triazol-4-yl)methanone] | 1.1 nM | –
O=C(c1cnn[nH]1)N1CC2CCC(C1)N2S(=O)(=O)c1ccc(F)cc1F [Example 25, {8-[(2,4-difluorophenyl)sulfonyl]-3,8-diazabicyclo[3.2.1]oct-3-yl}(1H-1,2,3-triazol-5-yl)methanone] | 2.6 nM | –
O=C(c1cnn[nH]1)N1CC2CCC(C1)N2S(=O)(=O)c1ccc(Cl)c(Cl)c1 [Example 48, {8-[(3,4-dichlorophenyl)sulfonyl]-3,8-diazabicyclo[3.2.1]oct-3-yl}(1H-1,2,3-triazol-5-yl)methanone] | 1.1 nM | –
O=C(c1cnn[nH]1)N1CC2CCC(C1)N2S(=O)(=O)c1ccc(F)c(F)c1F [Example 59, 1H-1,2,3-triazol-5-yl{8-[(2,3,4-trifluorophenyl)sulfonyl]-3,8-diazabicyclo[3.2.1]oct-3-yl}methanone] | 2.2 nM | –
O=C(c1cnn[nH]1)N1CC2CC[C@@H](C1)N2S(=O)(=O)c1cccc(Cl)c1Cl [Example 53, {(1S)-8-[(2,3-dichlorophenyl)sulfonyl]-3,8-diazabicyclo[3.2.1]oct-3-yl}(1H-1,2,3-triazol-5-yl)methanone] | 0.8 nM | –
COc1cccc(S(=O)(=O)N2C3CCC2CN(C(=O)c2cnn[nH]2)C3)c1 [Example 20, {8-[(3-methoxyphenyl)sulfonyl]-3,8-diazabicyclo[3.2.1]oct-3-yl}(1H-1,2,3-triazol-5-yl)methanone] | 1 nM | –
O=C(c1cnn[nH]1)N1CC2CCC(C1)N2S(=O)(=O)c1ccccc1[N+](=O)[O-] [Example 46, {8-[(2-nitrophenyl)sulfonyl]-3,8-diazabicyclo[3.2.1]oct-3-yl}(1H-1,2,3-triazol-5-yl)methanone] | 0.9 nM | –
O=C(c1cnn[nH]1)N1CC2CCC(C1)N2S(=O)(=O)c1ccc(F)c(F)c1 [Example 23, {8-[(3,4-difluorophenyl)sulfonyl]-3,8-diazabicyclo[3.2.1]oct-3-yl}(1H-1,2,3-triazol-5-yl)methanone] | 2.2 nM | –
COc1cc(F)ccc1S(=O)(=O)N1C2CCC1CN(C(=O)c1cnn[nH]1)C2 [Example 72, {8-[(4-fluoro-2-methoxyphenyl)sulfonyl]-3,8-diazabicyclo[3.2.1]oct-3-yl}(1H-1,2,3-triazol-5-yl)methanone] | 1.1 nM | –
O=C(c1cnn[nH]1)N1CC2CCC(C1)N2S(=O)(=O)c1c(Cl)cc(Cl)cc1Cl [Example 56, 1H-1,2,3-triazol-5-yl{8-[(2,4,6-trichlorophenyl)sulfonyl]-3,8-diazabicyclo[3.2.1]oct-3-yl}methanone] | 1.4 nM | –
O=C(c1cnn[nH]1)N1CC2CCC(C1)N2S(=O)(=O)c1cccc(OC(F)(F)F)c1 [Example 33, 1H-1,2,3-triazol-5-yl[8-{[3-(trifluoromethoxy)phenyl]sulfonyl}-3,8-diazabicyclo[3.2.1]oct-3-yl]methanone] | 1.8 nM | –
O=C(c1cnn[nH]1)N1CC2CCC(C1)N2S(=O)(=O)c1cccc(F)c1Cl [Example 71, {8-[(2-chloro-3-fluorophenyl)sulfonyl]-3,8-diazabicyclo[3.2.1]oct-3-yl}(1H-1,2,3-triazol-5-yl)methanone] | 0.8 nM | –
